Data from patent US12447170B2, “Use of maribavir in treatment regimens” (priority 2021, dated 2025).
Entries after “also recorded” stand apart in the source; their conditions may differ. Like-named read-outs stand apart in the source and are kept apart here.

Assays:
CYP2E1 = molecular target: T1, CYP2E1 (Homo sapiens, UniProt P05181); test: Reversible CYP inhibition in human liver microsomes (HLM); type: in vitro ADME; conditions: up to 100 μM
T1 construct: from tissue; host or cells: human liver microsomes
T1 sequence (P05181 whole entry): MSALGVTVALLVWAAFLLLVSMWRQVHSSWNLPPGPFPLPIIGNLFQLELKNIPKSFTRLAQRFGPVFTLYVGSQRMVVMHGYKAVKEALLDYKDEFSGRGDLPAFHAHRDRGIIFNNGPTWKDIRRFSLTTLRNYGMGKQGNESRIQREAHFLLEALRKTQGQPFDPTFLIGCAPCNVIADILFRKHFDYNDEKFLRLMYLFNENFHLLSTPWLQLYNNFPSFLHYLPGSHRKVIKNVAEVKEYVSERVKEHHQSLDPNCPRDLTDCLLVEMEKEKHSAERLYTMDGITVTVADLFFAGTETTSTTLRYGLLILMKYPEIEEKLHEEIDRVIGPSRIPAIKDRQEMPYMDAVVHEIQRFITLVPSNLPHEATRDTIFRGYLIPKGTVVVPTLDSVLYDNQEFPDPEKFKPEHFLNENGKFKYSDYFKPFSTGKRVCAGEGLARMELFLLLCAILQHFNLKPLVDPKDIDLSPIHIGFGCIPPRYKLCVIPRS
Method: (§1) HLM were used to evaluate maribavir's half maximal inhibitory concentration (IC50) on inhibition of activities of nine CYP isoforms. Probe substrates were phenacetin (CYP1A2), coumarin (CYP2A6), bupropion (CYP2B6), paclitaxel (CYP2C8), tolbutamide (CYP2C9), (S)-mephenytoin (CYP2C19), dextromethorphan (CYP2D6), clorzoxazone (CYP2E1), and midazolam and testosterone (CYP3A4).
(§2) CYP activities with 0, 0.1, 0.3, 1, 3, 10, 30, and 100 μM of maribavir were evaluated.

CYP2B6 = molecular target: T2, CYP2B6 (Homo sapiens, UniProt P20813); test: as above; type: in vitro ADME; conditions: up to 100 μM
T2 construct: from tissue; host or cells: human liver microsomes
T2 sequence (P20813 1-491): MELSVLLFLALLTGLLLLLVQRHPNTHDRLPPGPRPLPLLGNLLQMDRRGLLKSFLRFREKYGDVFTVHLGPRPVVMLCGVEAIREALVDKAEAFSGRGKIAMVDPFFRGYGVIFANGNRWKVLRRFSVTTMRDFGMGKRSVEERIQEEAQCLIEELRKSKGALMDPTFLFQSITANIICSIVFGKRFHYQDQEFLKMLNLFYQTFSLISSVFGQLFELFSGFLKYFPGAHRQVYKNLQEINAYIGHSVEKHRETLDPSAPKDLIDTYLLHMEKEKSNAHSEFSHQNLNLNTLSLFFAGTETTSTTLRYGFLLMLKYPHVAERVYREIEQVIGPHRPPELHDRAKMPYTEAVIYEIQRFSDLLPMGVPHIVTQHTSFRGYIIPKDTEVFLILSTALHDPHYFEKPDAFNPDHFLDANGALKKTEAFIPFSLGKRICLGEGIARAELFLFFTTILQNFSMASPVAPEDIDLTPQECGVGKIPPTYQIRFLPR
Method: as §1, §2

CYP3A4 = molecular target: T3, CYP3A4 (Homo sapiens, UniProt P08684); test: as above; type: in vitro ADME; conditions: up to 100 μM
T3 construct: from tissue; host or cells: human liver microsomes
T3 sequence (P08684 whole entry): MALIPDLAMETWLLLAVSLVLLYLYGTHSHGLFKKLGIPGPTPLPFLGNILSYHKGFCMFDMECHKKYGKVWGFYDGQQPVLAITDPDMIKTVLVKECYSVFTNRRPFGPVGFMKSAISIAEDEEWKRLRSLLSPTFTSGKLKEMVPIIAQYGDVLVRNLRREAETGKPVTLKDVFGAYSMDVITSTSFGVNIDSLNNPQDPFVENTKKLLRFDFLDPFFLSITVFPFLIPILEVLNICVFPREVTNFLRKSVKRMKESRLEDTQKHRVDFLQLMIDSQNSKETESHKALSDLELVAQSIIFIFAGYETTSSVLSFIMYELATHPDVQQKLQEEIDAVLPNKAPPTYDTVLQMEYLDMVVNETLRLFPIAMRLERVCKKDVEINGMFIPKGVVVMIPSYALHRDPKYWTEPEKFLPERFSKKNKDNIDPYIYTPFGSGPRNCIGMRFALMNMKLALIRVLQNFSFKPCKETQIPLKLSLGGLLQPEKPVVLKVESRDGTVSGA
Method: as §1, §2

CYP2A6 = molecular target: T4, CYP2A6 (Homo sapiens, UniProt P11509); test: as above; type: in vitro ADME; conditions: up to 100 μM
T4 construct: from tissue; host or cells: human liver microsomes
T4 sequence (P11509 1-494): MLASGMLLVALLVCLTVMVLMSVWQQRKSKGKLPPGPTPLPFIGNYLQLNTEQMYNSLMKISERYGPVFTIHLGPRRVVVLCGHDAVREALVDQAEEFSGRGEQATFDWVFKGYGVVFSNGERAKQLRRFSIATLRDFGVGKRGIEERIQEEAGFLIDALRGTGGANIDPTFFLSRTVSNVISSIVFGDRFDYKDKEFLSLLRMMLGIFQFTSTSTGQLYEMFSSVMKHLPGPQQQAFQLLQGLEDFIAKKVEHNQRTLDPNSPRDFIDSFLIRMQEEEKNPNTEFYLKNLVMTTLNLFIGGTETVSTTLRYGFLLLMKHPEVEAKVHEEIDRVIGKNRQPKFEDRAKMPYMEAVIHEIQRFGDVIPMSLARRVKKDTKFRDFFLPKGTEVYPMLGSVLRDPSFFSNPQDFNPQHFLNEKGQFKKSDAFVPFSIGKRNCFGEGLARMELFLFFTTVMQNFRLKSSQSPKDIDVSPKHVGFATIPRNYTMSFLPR
Method: as §1, §2

[1] = Observed clinical interaction of maribavir with ketoconazole in healthy subjects; type: in vivo, human; conditions: for AUC(0-inf) / Cmax: human, in vivo, 400 mg
Method: (§3) A comparison of observed and predicted plasma concentrations of maribavir following a single oral dose of 400 mg administered in the absence of ketoconazole (a CYP3A4 inhibitor) and 1 hour after a single 400 mg dose of ketoconazole to healthy subjects was performed.

[2] = PBPK simulation of maribavir with ketoconazole (CYP3A4 inhibitor); parameters: species or system human
Method: as §3

CYP3A = CYP3A (Homo sapiens, UniProt P08684); test: Time-dependent inhibition of CYP3A in HLM (IC50 shift and enzyme inactivation kinetics); type: in vitro ADME; parameters: from tissue; host or cells: human liver microsomes; conditions: human liver microsomes; for kinact: read-out: kinact (maximum enzyme inactivation rate constant), TDI of CYP3A (converted)
Sequence of CYP3A (P08684 2-503): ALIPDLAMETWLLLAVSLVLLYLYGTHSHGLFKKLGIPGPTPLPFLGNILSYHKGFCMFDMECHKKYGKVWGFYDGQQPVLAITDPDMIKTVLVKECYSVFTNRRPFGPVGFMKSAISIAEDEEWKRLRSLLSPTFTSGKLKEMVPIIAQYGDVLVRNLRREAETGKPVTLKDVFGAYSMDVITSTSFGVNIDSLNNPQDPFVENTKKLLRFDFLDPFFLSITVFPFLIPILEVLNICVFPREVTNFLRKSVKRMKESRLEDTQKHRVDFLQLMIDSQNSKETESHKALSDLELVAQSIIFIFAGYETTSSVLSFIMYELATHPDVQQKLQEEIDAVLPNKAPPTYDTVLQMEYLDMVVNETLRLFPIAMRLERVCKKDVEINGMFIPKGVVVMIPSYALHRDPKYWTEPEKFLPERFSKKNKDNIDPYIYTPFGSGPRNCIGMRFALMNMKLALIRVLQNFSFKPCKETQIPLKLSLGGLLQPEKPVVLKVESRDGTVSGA
Method: Time-dependent inhibition (TDI) potentials for various CYP enzymes were evaluated by a 30 minute pre-incubation of maribavir with HLM in the presence and absence of nicotinamide-adenine dinucleotide […] (NADPH) followed by a CYP enzyme activity assay.
Enzyme inactivation kinetics of maribavir for the TDI of CYP3A, with midazolam and testosterone as probe substrates, was evaluated by pre-incubation of HLM with maribavir at various concentrations with NADPH for six different pre-incubation time frames. CYP3A activity was measured by determining the formation of CYP3A probe metabolite. Inhibitor concentration at half maximal enzyme inactivation (KI), and maximum enzyme inactivation rate constant (kinact), were estimated using non-linear least-square regression.

[3] = Drug interaction summary: effect of co-administered drugs on maribavir pharmacokinetics (Tables 1-A, 1-B)
Text: Drug interaction studies were summarized based on Example 2 and other available data (e.g., in vitro and clinical data).

[4] = maribavir 400 mg single dose 1 hour after ketoconazole 400 mg
[5] = Aluminum hydroxide and magnesium hydroxide antacid 20 mL single dose, maribavir 100 mg single dose
[6] = Ketoconazole 400 mg single dose, maribavir 400 mg single dose
[7] = Rifampin 600 mg once daily, maribavir 400 mg twice daily

CC(C)Nc1nc2cc(Cl)c(Cl)cc2n1[C@H]1O[C@@H](CO)[C@H](O)[C@@H]1O [maribavir, (2S,3S,4R,5S)-2-(5,6-dichloro-2-(isopropylamino)-1H-benzo[d]imidazol-1-yl)-5-(hydroxymethyl)tetrahydrofuran-3,4-diol]
reversible inhibition of CYP2E1 (CYP2E1): not a reversible inhibitor; also recorded: no significant inhibition
reversible inhibition of CYP2B6 (CYP2B6): not a reversible inhibitor; also recorded: no significant inhibition
reversible inhibition of CYP3A4 (CYP3A4): not a reversible inhibitor; also recorded: no significant inhibition
reversible inhibition of CYP2A6 (CYP2A6): not a reversible inhibitor; also recorded: no significant inhibition
AUC(0-inf) ([1]; observed Geometric mean): 183 µg·h/mL
AUC(0-inf) ([1]; observed Mean): 194 µg·h/mL
Cmax ([1]; observed Geometric mean): 21300 ng/mL
Cmax ([1]; observed Mean): 21800 ng/mL
Ratio AUC(0-∞), observed Geometric mean ([1]; with/without ketoconazole): 1.53
Ratio AUC(0-∞), observed Mean ([1]; with/without ketoconazole): 1.55
Ratio Cmax, observed Geometric mean ([1]; with/without ketoconazole): 1.10
Ratio Cmax, observed Mean ([1]; with/without ketoconazole): 1.12
AUC(0-∞), GEOMEAN RATIO PREDICTED/OBSERVED [2, 4]: 0.77
AUC(0-∞), MEAN RATIO PREDICTED/OBSERVED [2, 4]: 0.78
Cmax, GEOMEAN RATIO PREDICTED/OBSERVED [2, 4]: 0.65
Cmax, MEAN RATIO PREDICTED/OBSERVED [2, 4]: 0.66
Ratio AUC(0-∞), GEOMEAN RATIO PREDICTED/OBSERVED ([2]; with/without ketoconazole): 1.00
Ratio AUC(0-∞), MEAN RATIO PREDICTED/OBSERVED ([2]; with/without ketoconazole): 0.99
Ratio Cmax, GEOMEAN RATIO PREDICTED/OBSERVED ([2]; with/without ketoconazole): 1.06
Ratio Cmax, MEAN RATIO PREDICTED/OBSERVED ([2]; with/without ketoconazole): 1.05
KI (inactivation) (CYP3A; probe midazolam): 41.2 µM
kinact (CYP3A; probe midazolam, midazolam as substrate): 0.000195 s⁻¹
KI (inactivation) (CYP3A; probe testosterone): 167 µM
kinact (CYP3A; probe testosterone, testosterone as substrate): 0.000595 s⁻¹
Geometric Mean Ratio of Maribavir PK with/without Co-administered Drug (No Effect = 1.00), AUC [3, 5]: 0.89
Geometric Mean Ratio of Maribavir PK with/without Co-administered Drug (No Effect = 1.00), Cmax [3, 5]: 0.84
Geometric Mean Ratio of Maribavir PK with/without Co-administered Drug (No Effect = 1.00), AUC [3, 6]: 1.53
Geometric Mean Ratio of Maribavir PK with/without Co-administered Drug (No Effect = 1.00), Cmax [3, 6]: 1.10
Geometric Mean Ratio of Maribavir PK with/without Co-administered Drug (No Effect = 1.00), AUC [3, 7]: 0.40
Geometric Mean Ratio of Maribavir PK with/without Co-administered Drug (No Effect = 1.00), Cmax [3, 7]: 0.61
Geometric Mean Ratio of Maribavir PK with/without Co-administered Drug (No Effect = 1.00), Ctau ([3]; Rifampin 600 mg once daily, maribavir 400 mg twice daily, tau 12 hours): 0.18
